Where a name gives a salt, the structure may show the parent alone.
Key:
[1] = tested on: C. neoformans (ATCC 208821); experiment: CO-ADD antifungal assay, growth inhibition (resazurin, OD600-570); type: cell-based, Cryptococcus neoformans; conditions: up to 32 μg/mL; for MIC / Dmax: Cryptococcus neoformans, ATCC208821; for MIC / MIC C. neoformans: predicted or measured MIC, ≥75% growth inhibition, 36 h; for Dmax: read-out: Dmax C. neoformans, maximum % inhibition
[2] = tested on: C. albicans (ATCC 90028); experiment: CO-ADD antifungal assay, growth inhibition (OD630); type: cell-based, Candida albicans; conditions: for MIC / Dmax: Candida albicans, ATCC90028; for MIC / MIC C. albicans: predicted or measured MIC, ≥75% growth inhibition, 36 h; for MIC / Dmax / MIC C. albicans / Dmax C. albicans, maximum % inhibition: up to 32 μg/mL; for Dmax: read-out: Dmax C. albicans, maximum % inhibition
[3] = tested on: HEK293 ATCC CRL-1573 human embryonic kidney cells; experiment: CO-ADD cytotoxicity assay (resazurin); type: cell-based; conditions: for antiproliferative effect against HEK293 (in words): all concentrations examined (0.25-32 μg/mL), 20 h, CC50 could not be measured
[4] = pH 4; cited from earlier work
[5] = tested on: MRC-5 cells; conditions: cited from earlier work
[6] = tested on: human red blood cells; experiment: CO-ADD hemolysis assay; type: cell-based; conditions: all concentrations examined (0.25-32 μg/mL), 1 h; HC10 and HC50 could not be measured
Experimental: The compounds were used as received by the CO-ADD. For the screenings, most compounds were dissolved to a stock concentration of 10 mg/mL in DMSO. K2[Ti(Citrate)3], Na3Citrate, and K2[TiO(Oxalate)2] were dissolved in warm water. [Cu(Deferasirox)(H2O)]2 was dissolved in pyridine after its solubility was determined to be excellent in pyridine due to coordination of the solvent to the metal producing [Cu(Deferasirox)(pyridine)]2 in situ. […] Each sample concentration was prepared in 384-well plates, non-binding surface plate (NBS; Corning 3640) for each bacterial/fungal strain, tissue-culture treated (TC-treated; Corning 3712/3764), black for mammalian cell types and polypropylene 384-well (PP; […] All sample preparation was conducted using liquid handling robots. Human whole blood (Australian Red Cross) was washed three times with three volumes of 0.9% NaCl and resuspended in a concentration of 0.5 × 10^8 cells per mL, determined by manual cell count in a Neubauer hemocytometer. Washed cells were added to the compound-containing plates (384-well polypropylene plates (PP); Corning 3657) for a final volume of 50 μL, shaken and incubated for 1 h at 37 °C. […]

Compound	MIC [1]	Dmax [1]	MIC [2]	Dmax [2]	antiproliferative effect against HEK293 (in words) [3]	MIC C. neoformans [1]	MIC C. albicans [2]	Dmax C. albicans, maximum % inhibition [2]	also measured
O=C(O)CC(O)(CC(=O)O)C(=O)O [Compound 1, Trisodium citrate, reference compound]	> 32 µg/mL	-8.24%	> 32 µg/mL	0.28%					
Oc1cc2ccccc2cc1O [Compound 2, 2,3-dihydroxynaphthalene, reference compound]	> 32 µg/mL	-9.97%	> 32 µg/mL	16.3%					
O=C(O)c1ccccc1O [Compound 6, salicylic acid, reference compound]	> 32 µg/mL	-10.7%	> 32 µg/mL	30.9%					
[K+].[K+].c1ccc2cc3c(cc2c1)[O][Ti-2]12([O]3)([O]c3cc4ccccc4cc3[O]1)[O]c1cc3ccccc3cc1[O]2 [Compound 8, K2[Ti(Naphthalene-2,3-diolate)3]]					inactive	>32 µg/mL	>32 µg/mL	57.57%	solution stability (in words) [4]: highly stable in solution; Dmax C. neoformans, maximum % inhibition [1]: −1.45%
O=C(O)c1ccc(-n2nc3nc2-c2ccccc2[O][Ti]2([O]c4ccccc4-3)[O]c3ccccc3-c3nc(n(-c4ccc(C(=O)O)cc4)n3)-c3ccccc3[O]2)cc1 [Compound 10, titanium(IV) bis(deferasirox)]					insignificant antiproliferative effect	>32 µg/mL	>32 µg/mL	5.74%	IC50 ± SD [5]: 19.8 ± 0.8 µg/mL; IC50 ([5]; read-out: IC50 ± SD): 25 ± 1 µM; solution stability (in words) [4]: highly stable in solution; Dmax C. neoformans, maximum % inhibition [1]: −5.72%; hemolysis of human red blood cells (in words) [6]: insignificant antiproliferative effect
O=C([O-])C(=O)O.O=C([O-])C(=O)O.[K+].[K+].[O]=[Ti] [Compound 14, Potassium dioxalatoxotitanate(IV) dihydrate]					insignificant antiproliferative effect	>32 µg/mL	32 µg/mL	77.3%	hemolysis of human red blood cells (in words) [6]: insignificant antiproliferative effect; C. albicans MIC value in units of molarity ([2]; converted from 32 μg/mL (Table S1)): 90.4 µM; Dmax C. albicans, maximum % inhibition ([2]; listed as K2[TiO(Oxalate)2]): greater than 75%
[Cu(Deferasirox)(H2O)]2 [Compound 15]						>32 µg/mL	>32 µg/mL	34.0%	inhibition of HEK293 cell proliferation ([3]; at the maximum concentration tested): ~50%
